Measured values: ChEMBL document CHEMBL1134184, “Synthesis of sialyl Lewis(x) mimics. Modifications of the 6-position of galactose” (Bioorg Med Chem Lett, 2001)

Biological target: T1, E-selectin (Homo sapiens, UniProt P16581)
T1 sequence (P16581 whole entry): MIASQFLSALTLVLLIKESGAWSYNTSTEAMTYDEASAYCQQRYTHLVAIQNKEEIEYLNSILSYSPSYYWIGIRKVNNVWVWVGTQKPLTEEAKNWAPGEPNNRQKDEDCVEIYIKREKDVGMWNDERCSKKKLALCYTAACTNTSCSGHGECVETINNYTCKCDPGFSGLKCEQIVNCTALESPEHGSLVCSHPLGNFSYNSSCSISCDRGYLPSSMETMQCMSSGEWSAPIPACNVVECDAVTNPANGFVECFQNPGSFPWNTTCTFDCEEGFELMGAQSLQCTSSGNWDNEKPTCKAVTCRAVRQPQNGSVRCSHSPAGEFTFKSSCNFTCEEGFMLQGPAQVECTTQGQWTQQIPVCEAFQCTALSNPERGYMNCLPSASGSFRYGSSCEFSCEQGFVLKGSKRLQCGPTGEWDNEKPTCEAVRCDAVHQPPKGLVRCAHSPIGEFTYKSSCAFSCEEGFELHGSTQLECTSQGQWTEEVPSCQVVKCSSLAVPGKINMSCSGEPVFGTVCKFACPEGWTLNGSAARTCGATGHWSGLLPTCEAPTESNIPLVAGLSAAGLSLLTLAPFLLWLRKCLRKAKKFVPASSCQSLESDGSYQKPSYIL
Assay: Inhibitory concentration of compound to block the binding of sLE Xto E-selectin

IC50 [mM] | SMILES
> 10 | CC1OC(OC2CCCCC2OC2OC(CNC(=O)c3ccccc3)C(O)C(OC(Cc3ccccc3)C(=O)O)C2O)C(O)C(O)C1O (stereo not given)
0.35 | C[C@@H]1O[C@@H](O[C@@H]2CCCC[C@H]2O[C@@H]2O[C@@H](CO)[C@H](O)[C@H](O[C@@H](Cc3ccccc3)C(=O)O)[C@@H]2O)[C@@H](O)[C@@H](O)[C@@H]1O
> 10 | CC1OC(OC2CCCCC2OC2OC(CN)C(O)C(O[C@@H](Cc3ccccc3)C(=O)O)C2O)C(O)C(O)C1O (stereo not given in full)
> 10 | CC(=O)NCC1OC(OC2CCCCC2OC2OC(C)C(O)C(O)C2O)C(O)C(OC(Cc2ccccc2)C(=O)O)C1O (stereo not given)
> 10 | CC1OC(OC2CCCCC2OC2OC(C(N)=O)C(O)C(O[C@@H](CC3CCCCC3)C(=O)O)C2O)C(O)C(O)C1O (stereo not given in full)
> 10 | C[C@@H]1O[C@@H](O[C@@H]2CCCC[C@H]2O[C@@H]2O[C@@H](C(=O)O)[C@H](O)[C@H](O[C@@H](Cc3ccccc3)C(=O)O)[C@@H]2O)[C@@H](O)[C@@H](O)[C@@H]1O
0.08 | C[C@@H]1O[C@@H](O[C@@H]2CCCC[C@H]2O[C@@H]2O[C@@H](CO)[C@H](O)[C@H](O[C@@H](CC3CCCCC3)C(=O)O)[C@@H]2O)[C@@H](O)[C@@H](O)[C@@H]1O
> 10 | C[C@@H]1O[C@@H](O[C@@H]2CCCC[C@H]2O[C@@H]2O[C@@H](COS(=O)(=O)O)[C@H](O)[C@H](O[C@@H](Cc3ccccc3)C(=O)O)[C@@H]2O)[C@@H](O)[C@@H](O)[C@@H]1O
1 | COC(=O)CCCCCCCCO[C@@H]1OC(CO)[C@@H](O[C@@H]2O[C@@H](CO)[C@H](O)[C@H](O[C@]3(C(=O)O)C[C@@H](O)[C@@H](NC(C)=O)[C@@H](C(O)C(O)CO)O3)[C@@H]2O)[C@@H](O[C@@H]2O[C@H](C)[C@@H](O)[C@H](O)C2O)[C@@H]1NC(C)=O (stereo not given in full)
> 10 | C[C@@H]1O[C@@H](O[C@@H]2CCCC[C@H]2O[C@@H]2O[C@@H](C(=O)O)[C@H](O)[C@H](O[C@@H](CC3CCCCC3)C(=O)O)[C@@H]2O)[C@@H](O)[C@@H](O)[C@@H]1O
